The values that follow come from US7514452B2, “2-furancarboxylic acid hydrazides and pharmaceutical compositions containing the same” (Dainippon Pharmaceutical Co., Ltd, priority 2002, dated 2009).

In data set [1] the target is glucagon receptor (Rattus norvegicus, UniProt P30082). Kind of data set: Experiment for glucagon binding inhibition, rat hepatic membrane (125I-glucagon). Particulars: male SD rat hepatic membrane, 125I-glucagon 50 pM, 25° C. for 30 minutes; read-out: Glucagon binding inhibitory activity IC50 (nM) Rat. On the procedure:
(§1) The preparation of membrane from mouse and rat livers was carried out according to the method described in Bioorg. Med. Chem. Lett. 1992, 12, 915-918 in this experiment and ^125I-glucagon binding activity was measured with these membranes as glucagon receptor's samples. Livers were removed from male SD rats (about 250 g body weight per rat) and male ddY mice (about 30 g body weight per mouse). […] The homogenate was centrifuged for 15 minutes at 30,000×g. […] The precipitaion thus obtained was used as a hepatic membrane sample. […] The mixture was incubated at 25° C. for 30 minutes. […] The filter was washed 3 times with 50 mM Tris-HCl buffer (pH 7.2), and the radioactivity of the filter was measured by a γ counter (ARC-360, Aloka Co., Ltd.). […] Each experiment was carried out in duplicate. […] The concentration at 50% inhibition of binding (IC50) was calculated using a pseudo Hill plot.

In data set [2] the target is glucagon receptor (Mus musculus, UniProt Q61606). Kind of data set: Experiment for glucagon binding inhibition, mouse hepatic membrane (125I-glucagon). Particulars: male ddY mouse hepatic membrane, 125I-glucagon 50 pM, 25° C. for 30 minutes; read-out: Glucagon binding inhibitory activity IC50 (nM) Mouse. On the procedure:
as §1

Chain of glucagon receptor (Rattus norvegicus, UniProt P30082) (P30082 27-485): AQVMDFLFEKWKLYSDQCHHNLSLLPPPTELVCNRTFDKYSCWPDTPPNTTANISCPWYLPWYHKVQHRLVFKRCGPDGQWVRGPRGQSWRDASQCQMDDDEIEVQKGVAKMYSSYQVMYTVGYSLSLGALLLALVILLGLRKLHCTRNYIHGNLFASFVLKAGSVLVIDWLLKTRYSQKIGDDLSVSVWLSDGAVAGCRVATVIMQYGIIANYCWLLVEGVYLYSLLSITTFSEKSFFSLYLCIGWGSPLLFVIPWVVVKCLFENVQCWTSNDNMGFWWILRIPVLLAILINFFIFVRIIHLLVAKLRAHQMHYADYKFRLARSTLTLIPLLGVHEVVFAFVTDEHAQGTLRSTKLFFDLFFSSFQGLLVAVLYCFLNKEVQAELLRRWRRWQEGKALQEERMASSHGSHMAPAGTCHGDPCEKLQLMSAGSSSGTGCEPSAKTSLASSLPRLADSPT
Chain of glucagon receptor (Mus musculus, UniProt Q61606) (Q61606 27-485): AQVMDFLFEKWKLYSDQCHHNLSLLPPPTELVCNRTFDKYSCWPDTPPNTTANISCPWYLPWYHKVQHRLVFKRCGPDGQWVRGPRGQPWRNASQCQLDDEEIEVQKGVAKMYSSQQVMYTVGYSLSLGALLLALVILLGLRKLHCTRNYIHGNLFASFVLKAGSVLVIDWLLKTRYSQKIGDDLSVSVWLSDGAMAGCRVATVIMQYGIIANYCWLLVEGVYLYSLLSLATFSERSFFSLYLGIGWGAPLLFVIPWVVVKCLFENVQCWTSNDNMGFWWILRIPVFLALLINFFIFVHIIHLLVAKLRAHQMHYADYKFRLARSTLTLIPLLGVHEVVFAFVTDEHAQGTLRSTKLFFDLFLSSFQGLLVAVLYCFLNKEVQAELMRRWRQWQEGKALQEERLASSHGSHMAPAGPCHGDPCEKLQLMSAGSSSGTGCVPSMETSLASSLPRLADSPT

The melting point is the temperature, or range, at which the solid turns liquid. For orientation: IC50 means the concentration needed to halve the response being measured. `O=C(NNC(=O)c1occc1-c1ccc(Cc2ccccc2)cc1)c1ccc(O)c([N+](=O)[O-])c1` [Example 210, 3-(4-benzylphenyl)-2-furancarboxylic acid 2-(4-hydroxy-3-nitrobenzoyl)hydrazide] came in with a melting point of 154 to 157 °C. The IC50 at glucagon receptor [1] was 3.9 nM. For the same molecule, at glucagon receptor [2], the IC50 worked out at 7.9 nM.
On the same counts, the results for `Cc1ccccc1COc1cccc(-c2ccoc2C(=O)NNC(=O)c2ccc(O)c([N+](=O)[O-])c2)c1` [Example 119, 3-[3-(2-methylbenzyloxy)phenyl]-2-furancarboxylic acid 2-(4-hydroxy-3-nitrobenzoyl)hydrazide] are 114 to 115 °C, 16 nM and 9.6 nM.
On the same counts, the results for `O=C(NNC(=O)c1occc1-c1cccc(Cc2ccccc2Cl)c1)c1ccc(O)c([N+](=O)[O-])c1` [Example 225] are 97 to 99 °C, 11 nM and 68 nM.
Molecule `Cc1ccccc1COc1ccc(-c2ccoc2C(=O)NNC(=O)c2ccc(O)c([N+](=O)[O-])c2)cc1` [Example 213] had a melting point of 177 to 179 °C. Moreover, at glucagon receptor [1], the IC50 was 35 nM. Also, the IC50 on glucagon receptor [2] was 80 nM.
`Cc1cccc(Cc2cccc(-c3ccoc3C(=O)NNC(=O)c3ccc(O)c([N+](=O)[O-])c3)c2)c1` [Example 235]: the melting point was 149 to 151 °C. For the same molecule, on glucagon receptor [1], the IC50 was 49 nM. Further, the IC50 at glucagon receptor [2] came out at 18 nM.
`Cc1cc(C)c(C)c(COc2ccc(-c3ccoc3C(=O)NNC(=O)c3ccc(O)c([N+](=O)[O-])c3)cc2)c1C` [Example 113, 3-[4-(2,3,5,6-Tetramethylbenzyloxy)phenyl]-2-furancarboxylic acid 2-(4-hydroxy-3-nitrobenzoyl)hydrazide] yielded a melting point of 203 to 204 °C. For the same molecule, the IC50 on glucagon receptor [1] stood at 28 nM. Besides, the IC50 at glucagon receptor [2] is 43 nM.
Consider `Cc1ccccc1Cc1cccc(-c2ccoc2C(=O)NNC(=O)c2ccc(O)c([N+](=O)[O-])c2)c1` [Example 229], for which the melting point was 135 to 138 °C. Moreover, the IC50 at glucagon receptor [1] amounted to 28 nM. Moreover, the IC50 on glucagon receptor [2] came out at 58 nM.
The molecule `CC(C)=CCOc1cccc(-c2ccoc2C(=O)NNC(=O)c2ccc(O)c([N+](=O)[O-])c2)c1` [Example 196, 3-[3-(3-Methyl-2-butenyloxy)phenyl]-2-furancarboxylic acid 2-(4-hydroxy-3-nitrobenzoyl)hydrazide] had a melting point of 84 to 85 °C. At glucagon receptor [1], the IC50 was 40 nM. At glucagon receptor [2], the 50% inhibitory concentration (IC50) came to 63 nM.
On the same counts, the results for `COc1ccc(COc2cccc(-c3ccoc3C(=O)NNC(=O)c3ccc(O)c([N+](=O)[O-])c3)c2)cc1` [Example 176, 3-[3-(4-Methoxybenzyloxy)phenyl]-2-furancarboxylic acid 2-(4-hydroxy-3-nitrobenzoyl)hydrazide] are 172 to 174 °C, 6.4 nM and 5.2 nM.
On the same counts, the results for `O=C(NNC(=O)c1occc1-c1cccc(OCc2ccc3ccccc3c2)c1)c1ccc(O)c([N+](=O)[O-])c1` [Example 204] are 198 to 199 °C, 3.6 nM and 5.4 nM.
On the same counts, the results for `Cc1cccc(-c2ccoc2C(=O)NNC(=O)c2ccc(O)c([N+](=O)[O-])c2)c1` [Example 145, 3-(3-Methylphenyl)-2-furancarboxylic acid 2-(4-hydroxy-3-nitrobenzoyl)hydrazide] are 126 to 128 °C, 100 nM and 190 nM.
Consider `Cc1ccc(COc2cccc(-c3ccoc3C(=O)NNC(=O)c3ccc(O)c([N+](=O)[O-])c3)c2)c(C)c1` [Example 128, 3-[3-(2,4-Dimethylbenzyloxy)phenyl]-2-furancarboxylic acid 2-(4-hydroxy-3-nitrobenzoyl)hydrazide], for which the melting point lay within 172 to 173 °C. For the same molecule, the IC50 at glucagon receptor [1] was determined as 3.4 nM. In addition, the half-inhibitory concentration (IC50) on glucagon receptor [2] came out at 2.8 nM.
Regarding `Cc1ccc(-c2ccoc2C(=O)NNC(=O)c2ccc(O)c([N+](=O)[O-])c2)cc1` [Example 146, 3-(4-Methylphenyl)-2-furancarboxylic acid 2-(4-hydroxy-3-nitrobenzoyl)hydrazide], the melting point fell in the range of 180 to 182 °C. The half-maximal inhibitory concentration (IC50) on glucagon receptor [1] was found to be 27 nM. Moreover, at glucagon receptor [2], the concentration for half-maximal inhibition (IC50) amounted to 38 nM.
On the same counts, the results for `C=C(C)COc1cccc(-c2ccoc2C(=O)NNC(=O)c2ccc(O)c([N+](=O)[O-])c2)c1` [Example 197, 3-[3-(2-Methyl-2-propenyloxy)phenyl]-2-furancarboxylic acid 2-(4-hydroxy-3-nitrobenzoyl)hydrazide] are 127 to 129 °C, 37 nM and 56 nM.
As to `COc1ccc(Cc2cccc(-c3ccoc3C(=O)NNC(=O)c3ccc(O)c([N+](=O)[O-])c3)c2)cc1` [Example 234], the melting point is 102 to 104 °C. Also, the IC50 at glucagon receptor [1] came to 39 nM. Further, on glucagon receptor [2], the concentration for half-maximal inhibition (IC50) stood at 56 nM.
On the same counts, the results for `CCCCCCc1cccc(-c2ccoc2C(=O)NNC(=O)c2ccc(O)c([N+](=O)[O-])c2)c1` [Example 188, 3-(3-Hexylphenyl)-2-furancarboxylic acid 2-(4-hydroxy-3-nitrobenzoyl)hydrazide] are 87 to 89 °C, 26 nM and 28 nM.
`Cc1cccc(C)c1COc1cccc(-c2ccoc2C(=O)NNC(=O)c2ccc(O)c([N+](=O)[O-])c2)c1` [Example 224] registered a melting point of 100 to 101 °C. For the same molecule, the half-maximal inhibitory concentration (IC50) at glucagon receptor [1] is 27 nM. For the same molecule, at glucagon receptor [2], the IC50 turned out to be 48 nM.
On the same counts, the results for `Cc1ccc(COc2cccc(-c3ccoc3C(=O)NNC(=O)c3ccc(O)c([N+](=O)[O-])c3)c2)cc1` [Example 126, 3-[3-(4-Methylbenzyloxy)phenyl]-2-furancarboxylic acid 2-(4-hydroxy-3-nitrobenzoyl)hydrazide] are 159 to 161 °C, 14 nM and 15 nM.
Take `CCCCCc1ccc(-c2ccoc2C(=O)NNC(=O)c2ccc(O)c([N+](=O)[O-])c2)cc1` [Example 162, 3-(4-Pentylphenyl)-2-furancarboxylic acid 2-(4-hydroxy-3-nitrobenzoyl)hydrazide]: the melting point is 163 to 165 °C. Also, the IC50 on glucagon receptor [1] amounted to 9.6 nM. Also, the IC50 on glucagon receptor [2] came out at 8.6 nM.
As to `CCCCCOc1ccc(-c2ccoc2C(=O)NNC(=O)c2ccc(O)c([N+](=O)[O-])c2)cc1` [Example 159, 3-(4-Pentyloxyphenyl)-2-furancarboxylic acid 2-(4-hydroxy-3-nitrobenzoyl)hydrazide], the melting point is 156 to 157 °C. For the same molecule, the IC50 on glucagon receptor [1] came to 31 nM. The IC50 at glucagon receptor [2] was 60 nM.
The molecule `CCCCOc1cccc(-c2ccoc2C(=O)NNC(=O)c2ccc(O)c(C#N)c2)c1` [Example 107, 3-(3-Butoxyphenyl)-2-furancarboxylic acid 2-(3-cyano-4-hydroxybenzoyl)hydrazide] gave a melting point of 186 to 188 °C. Also, the IC50 at glucagon receptor [1] was determined as 140 nM. Further, the IC50 at glucagon receptor [2] was determined as 360 nM.
`N#Cc1cc(C(=O)NNC(=O)c2occ(-c3ccc(F)cc3)c2-c2ccc(F)cc2)ccc1O` [Example 45, 3,4-Bis(4-fluorophenyl)-2-furancarboxylic acid 2-(3-cyano-4-hydroxybenzoyl)hydrazide]: the melting point fell in the range of 243 to 245 °C. The IC50 at glucagon receptor [1] is 220 nM. Besides, at glucagon receptor [2], the concentration for half-maximal inhibition (IC50) was 120 nM.
